Source: ChEMBL document CHEMBL1125730, “Dual inhibitors of thromboxane A2 synthase and 5-lipoxygenase with scavenging activity of active oxygen species. Synthesis of a novel series of (3-pyridylmethyl)benzoquinone derivatives” (J Med Chem, 1991)
pIC50: −log10 of the molar value.

Key:
[1] = target: T1, Thromboxane-A synthase (Rattus norvegicus) (UniProt P49430); assay: Inhibition of rat thromboxane A2 synthase evaluated as percent inhibition of thromboxane B2 formation after 24 hr of administration at 10 mg/kg.; assay type: functional, organism-based; set-up: dose 10 mg/kg
T1 sequence (whole entry): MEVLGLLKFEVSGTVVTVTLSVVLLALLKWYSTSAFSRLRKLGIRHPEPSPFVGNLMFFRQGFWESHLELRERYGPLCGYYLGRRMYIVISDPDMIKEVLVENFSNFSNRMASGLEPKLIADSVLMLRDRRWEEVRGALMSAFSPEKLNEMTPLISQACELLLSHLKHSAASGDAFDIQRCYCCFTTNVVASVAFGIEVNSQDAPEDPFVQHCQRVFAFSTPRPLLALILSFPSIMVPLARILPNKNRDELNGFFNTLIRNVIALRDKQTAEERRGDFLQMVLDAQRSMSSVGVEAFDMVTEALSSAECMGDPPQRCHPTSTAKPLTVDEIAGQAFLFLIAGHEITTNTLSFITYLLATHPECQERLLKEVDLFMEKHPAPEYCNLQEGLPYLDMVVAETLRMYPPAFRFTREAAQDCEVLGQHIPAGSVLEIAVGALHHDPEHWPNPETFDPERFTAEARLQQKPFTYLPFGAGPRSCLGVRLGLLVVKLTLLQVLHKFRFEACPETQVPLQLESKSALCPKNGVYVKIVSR

[2] = target: T2, Polyunsaturated fatty acid 5-lipoxygenase (Rattus norvegicus, UniProt P12527)
T2 sequence (P12527 whole entry): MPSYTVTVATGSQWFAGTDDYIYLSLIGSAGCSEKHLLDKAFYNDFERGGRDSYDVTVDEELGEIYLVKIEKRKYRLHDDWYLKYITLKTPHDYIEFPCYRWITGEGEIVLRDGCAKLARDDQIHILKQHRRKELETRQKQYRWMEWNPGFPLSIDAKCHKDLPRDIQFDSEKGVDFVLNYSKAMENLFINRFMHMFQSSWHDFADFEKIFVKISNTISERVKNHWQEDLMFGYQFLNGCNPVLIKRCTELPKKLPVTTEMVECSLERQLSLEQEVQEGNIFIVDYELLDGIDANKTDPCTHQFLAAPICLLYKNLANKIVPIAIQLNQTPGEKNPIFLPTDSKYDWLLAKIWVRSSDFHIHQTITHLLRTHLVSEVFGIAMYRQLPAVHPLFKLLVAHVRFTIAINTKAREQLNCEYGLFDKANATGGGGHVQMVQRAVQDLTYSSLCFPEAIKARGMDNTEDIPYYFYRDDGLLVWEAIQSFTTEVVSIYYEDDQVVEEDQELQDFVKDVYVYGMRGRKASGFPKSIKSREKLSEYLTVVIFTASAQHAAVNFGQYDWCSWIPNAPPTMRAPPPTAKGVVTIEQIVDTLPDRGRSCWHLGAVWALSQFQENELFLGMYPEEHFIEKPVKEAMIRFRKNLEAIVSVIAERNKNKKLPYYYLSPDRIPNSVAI

physchem = settings: octanol/water
Description: Partition coefficient (logP)

Equus caballus = species: Equus caballus; assay: The concentration required to reduce by 50% the amount of LTB4 formed by RBL-1 cells; assay type: functional, organism-based
[3] = target: T3, Thromboxane-A synthase (Homo sapiens) (UniProt P24557); assay: Inhibitory activity of compound against thromboxane A2 synthase evaluated as percent inhibition of thromboxane B2 formed by incubating PGH-2 with horse platelet microsomes; assay type: functional; settings: Equus caballus; target entry is the homologue from another species; concentration not given here
T3 sequence (whole entry): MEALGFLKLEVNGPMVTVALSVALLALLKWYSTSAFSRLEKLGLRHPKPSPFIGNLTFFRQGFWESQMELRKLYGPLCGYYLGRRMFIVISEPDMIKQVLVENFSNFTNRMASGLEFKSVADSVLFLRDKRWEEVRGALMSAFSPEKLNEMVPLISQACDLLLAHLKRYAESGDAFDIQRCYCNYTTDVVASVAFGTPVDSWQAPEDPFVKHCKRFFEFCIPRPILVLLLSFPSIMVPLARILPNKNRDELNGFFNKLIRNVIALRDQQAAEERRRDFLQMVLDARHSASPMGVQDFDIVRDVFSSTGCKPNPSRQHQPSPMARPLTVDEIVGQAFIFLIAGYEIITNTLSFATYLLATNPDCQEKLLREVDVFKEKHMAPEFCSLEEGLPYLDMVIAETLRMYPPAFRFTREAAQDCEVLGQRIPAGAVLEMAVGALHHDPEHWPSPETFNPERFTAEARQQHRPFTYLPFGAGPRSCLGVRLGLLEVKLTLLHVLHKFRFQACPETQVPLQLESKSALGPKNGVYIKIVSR

[4] = target: T3, Thromboxane-A synthase (Homo sapiens); assay: Inhibitory activity of compound against thromboxane A2 synthase evaluated as percent inhibition of thromboxane B2 formation after 24 hr of administration of 10 mg/kg of compound in rat; assay type: functional, organism-based; set-up: dose 10 mg/kg
Rattus norvegicus [5] = assay: Protective effect was evaluated by measuring the urinary albumin by peroral administering 100 mg/kg per day for four weeks in adriamycin induced proteinuria 7 rats for four weeks.; assay type: functional, Urine; settings: route oral
Rattus norvegicus [6] = assay: Protective effect was evaluated by measuring the urinary total protein by peroral administering 100 mg/kg per day for four weeks in 7 rats for four weeks.; assay type: functional, Urine; settings: route oral
Rattus norvegicus [7] = assay: Protective effect was evaluated by measuring the urinary total protein by peroral administering 100 mg/kg per day for four weeks in adriamycin induced proteinuria in 7 rats for four weeks.; assay type: functional, Urine; settings: route oral
RBL-1 = assay: cells; settings: Rattus norvegicus
Rattus norvegicus [8] = assay: Protective effect was evaluated by measuring the urinary total protein by peroral administering 10 mg/kg per day for four weeks in 8 rats; assay type: functional, Urine; settings: route oral
Rattus norvegicus [9] = assay: Protective effect was evaluated by measuring the urinary albumin by peroral administering 10 mg/kg per day for four weeks in 8 rats; assay type: functional, Urine; settings: route oral
Rattus norvegicus [10] = assay: Compound was evaluated […] for percent inhibition of lipid peroxidation in rat brain homogenates at 10e-6 M; assay type: functional

Row | Compound | inhibition [1] [%] | pIC50 [2] | logP (physchem) | further results
1 | CC1=C(CCC(=O)O)C(=O)C(C)=C(Cc2cccnc2)C1=O | 86 | 5.30 | -0.65 | –
2 | CC1=C(C)C(=O)C(C(C)c2cccnc2)=C(C)C1=O (centres undefined) | 90 | 5.02 | 2.85 | inhibition [3]: 89%
3 | CC1=C(C)C(=O)C(C(CCCCO)c2cccnc2)=C(C)C1=O (centres undefined) | 40 | 7.00 | 3.19 | –
4 | CC1=C(C)C(=O)C(C(c2cccnc2)c2cccc(/C=C(\C)C(=O)O)c2)=C(C)C1=O (centres undefined) | 19 | 4.00 | 2.08 | –
5 | CC1=C(C)C(=O)C(C(c2cccnc2)c2cccc(CCC(=O)O)c2)=C(C)C1=O (centres undefined) | – | 4.00 | 2.08 | –
6 | CCCCCCC(C1=C(C)C(=O)C(C)=C(C)C1=O)c1cccnc1 (centres undefined) | 70 | 7.14 | 5.35 | –
7 | CC1=C(Cc2cccnc2)C(=O)c2ccccc2C1=O | 92 | 7.09 | 2.77 | –
8 | O=C(O)CCCC/C=C(\c1ccccc1)c1cccnc1 [(E)-ISBOGREL] | 90 | – | – | Albumin (Rattus norvegicus [5]): 75 mg 100g-1 24hr-1; Total protein (Rattus norvegicus [6]): 131 mg 100g-1 24hr-1
9 | CC1=C(C)C(=O)C(/C(=C/CCCCC(=O)O)c2cccnc2)=C(C)C1=O | 91 | 5.14 | 1.05 | –
10 | CC1=C(C)C(=O)C(CCCCC#CCCCC#CCO)=C(C)C1=O [DOCEBENONE] | – | 7.05 | – | Total protein (Rattus norvegicus [7]): 95 mg 100g-1 24hr-1; Albumin (Rattus norvegicus [5]): 49 mg 100g-1 24hr-1
11 | CC1=C(C)C(=O)C(Cc2cccnc2)=C(C)C1=O | 86 | 7.21 | 2.55 | Total protein (Rattus norvegicus [8]): 60 mg 100g-1 24hr-1; Albumin (Rattus norvegicus [9]): 39 mg 100g-1 24hr-1
12 | CCCCCCCCCCCCCCCCCCOC1=C(O)[C@@H](C(O)CO)OC1=O (some centres undefined) | – | – | – | Total protein (Rattus norvegicus [7]): 122 mg 100g-1 24hr-1; Albumin (Rattus norvegicus [5]): 70 mg 100g-1 24hr-1
13 | CC1=C(/C=C/C(=O)O)C(=O)C(C)=C(Cc2cccnc2)C1=O | 90 | 5.06 | -0.95 | –
14 | CC1=C(C)C(=O)C(C(CCCCCC(=O)O)c2cccnc2)=C(C)C1=O (centres undefined) | 90 | 5.03 | 1.35 | –

Now from value to molecule, other results behind:

Row | inhibition [1] [%] | pIC50 [2] | logP (physchem) | Compound | further results
15 | 73 | 5.06 | -0.65 | CC1=C(/C=C(\C)C(=O)O)C(=O)C(C)=C(Cc2cccnc2)C1=O | –
16 | – | – | 5.05 | CCCCC/C=C(\C1=C(C)C(=O)C(C)=C(C)C1=O)c1cccnc1 | pIC50 (Equus caballus): 6.66
17 | 80 | 8.10 | 3.28 | CCOC(=O)/C=C/C1=C(C)C(=O)C(Cc2cccnc2)=C(C)C1=O | –
18 | – | 6.60 | 4.08 | CC(=O)OCCCCC(C1=C(C)C(=O)C(C)=C(C)C1=O)c1cccnc1 (centres undefined) | inhibition [4]: 37%
19 | 64 | 4.22 | 0.85 | CC1=C(C)C(=O)C(C(CCCCC(=O)O)c2cccnc2)=C(C)C1=O (centres undefined) | –
20 | 97 | 6.08 | 4.35 | CCCCC(C1=C(C)C(=O)C(C)=C(C)C1=O)c1cccnc1 (centres undefined) | –
21 | 75 | 6.18 | 3.35 | CCC(C1=C(C)C(=O)C(C)=C(C)C1=O)c1cccnc1 (centres undefined) | –
22 | – | 7.00 | 3.69 | CC1=C(C)C(=O)C(C(CCCCCO)c2cccnc2)=C(C)C1=O (centres undefined) | inhibition [4]: 72%
23 | 74 | – | 0.61 | COC1=C(OC)C(=O)C(Cc2cccnc2)=C(C)C1=O | –
24 | 97 | 5.15 | 1.85 | CC1=C(C)C(=O)C(C(CCCCCCC(=O)O)c2cccnc2)=C(C)C1=O (centres undefined) | –
25 | – | – | 5.05 | CCCCC/C=C(/C1=C(C)C(=O)C(C)=C(C)C1=O)c1cccnc1 | pIC50 (RBL-1): 6.59
26 | – | – | 0.35 | CC1=C(C)C(=O)C(C(CCCC(=O)O)c2cccnc2)=C(C)C1=O (centres undefined) | pIC50 (Equus caballus): 5.00; Inhibition (Rattus norvegicus [10]): 37%
27 | – | 7.06 | 4.58 | CC(=O)OCCCCCC(C1=C(C)C(=O)C(C)=C(C)C1=O)c1cccnc1 (centres undefined) | inhibition [4]: 84%
